pEC50: −log10 of the molar value.

What all share (assay type): cell-based
Experiment [1] deals with T1, heteromeric KV7.3/KV7.5 channel (KCNQ3, KCNQ5) (Homo sapiens, UniProt O43525+Q9NR82).
T1 construct: host or cells: HEK293
In words: Automated patch-clamp counter-screening against KV7.3/KV7.5 channel. As to conditions: HEK293 cells expressing Kv7.3/KV7.5; class by maximal shift in the Vhalf at 30 μM. The procedure, abridged:
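Potency came from a 4-parameter logistic fit of mean voltage-of-half-activation shifts, yielding EC50 and maximal shift; selectivity was judged on the shift at 30 μM. Compounds were applied at ten 3-fold dilutions from 30 μM in quadruplicate to HEK293 cells stably carrying Kv7.3 with tet-inducible Kv7.5.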

For experiment [2], the target named is T2, homomeric KV7.4 channel (KCNQ4) (Homo sapiens, UniProt P56696).
T2 construct: host or cells: CHO-K1
As to the kind of experiment: Automated patch-clamp (Qube) counter-screening assay against KV7.4 channel. Conditions: CHO-K1 cells expressing KV7.4; class by maximal shift in the Vhalf at 30 μM. An outline of the steps:
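EC50 and maximal shift in half-activation voltage come from 4-parameter logistic fits of mean Vhalf shifts. The series had ten 1-in-3 concentrations, highest 30 μM, each tested in quadruplicate. Recordings used automated Qube patch clamp on a stable CHO-K1 line expressing KCNQ4, and selectivity was judged from the 30 μM Vhalf shift.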

Experiment [3] deals with T3, heteromeric KV7.2/KV7.3 channels (KCNQ2, KCNQ3) (Homo sapiens, UniProt O43525+O43526).
T3 construct: expressed in transfected cells; host or cells: CHO-K1
As to the kind of experiment: Automated patch-clamp (Sophion Qube 384) potency assay against KV7.2/KV7.3 channels. Conditions: CHO-K1/Kv7.2/Kv7.3 cells; for pEC50: EC50 from concentration-response of shift in Vhalf, 10 concentrations up to 30 μM, read-out: Kv7.2/7.3 EC50; for Kv7.2/7.3 ΔV1/2: maximal shift in the Vhalf from the top of the curve. An outline of the steps:
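Activator potency: EC50 from 4-parameter logistic fit of mean Vhalf shift across ten 1-in-3 dilutions starting at 30 μM (n=4), with DMSO (typically 0.3%) control. Currents recorded by leak-subtracted whole-cell clamp of stable CHO-K1 KV7.2/KV7.3 cells, held at −80 mV, stepped −100 to +20 mV then 0 mV tails.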
Background: Patch clamp records ionic current or voltage across a cell membrane.

As for `O=C(NCc1ccnc(OCC(F)(F)F)c1)NCC1CCCc2ccccc21` (stereo not shown) [Compound 141], the Kv7.3/7.5 selectivity criteria entry in experiment [1] is given as “A (Selective compounds showed Kv7.4 and/or Kv7.3/7.5 ΔV1/2 equal to or lower than 15 mV (letter A in table 3))”. Further, the Kv7.4 selectivity criteria entry in experiment [2] is listed as “A (Selective compounds showed Kv7.4 and/or Kv7.3/7.5 ΔV1/2 equal to or lower than 15 mV (letter A in table 3))”. For the same molecule, in experiment [3], the pEC50 is 6.55 and the “Kv7.2/7.3 ΔV1/2” value stood at 17.59 mV.
Take `O=C(NCc1ccnc(OCC(F)(F)F)c1)N[C@H]1CCCOc2ccccc21` [Compound 142]: the Kv7.3/7.5 selectivity criteria result in experiment [1] was “A (Selective compounds showed Kv7.4 and/or Kv7.3/7.5 ΔV1/2 equal to or lower than 15 mV (letter A in table 3))”. Moreover, the Kv7.4 selectivity criteria entry in experiment [2] is given as “A (Selective compounds showed Kv7.4 and/or Kv7.3/7.5 ΔV1/2 equal to or lower than 15 mV (letter A in table 3))”. In experiment [3], the pEC50 is 6.18 and the “Kv7.2/7.3 ΔV1/2” value was determined as 16.4 mV.
In the case of `O=C(NCc1ccnc(OCC(F)(F)F)c1)N[C@H]1CCc2c(Cl)cccc21` [Compound 143], the Kv7.3/7.5 selectivity criteria result in experiment [1] was “B (Non-selective compounds showed Kv7.4 and/or Kv7.3/7.5 ΔV1/2 higher than 15 mV (letter B in table 3))”. Moreover, in experiment [2], the Kv7.4 selectivity criteria result is “A (Selective compounds showed Kv7.4 and/or Kv7.3/7.5 ΔV1/2 equal to or lower than 15 mV (letter A in table 3))”. Besides, in experiment [3], the pEC50 was 5.40 and the “Kv7.2/7.3 ΔV1/2” value is reported as 22.37 mV.
For `O=C(NCc1ccnc(OCC(F)(F)F)c1)NC1CCc2sccc21` (stereo not shown) [Compound 144] the same measures were “A (Selective compounds showed Kv7.4 and/or Kv7.3/7.5 ΔV1/2 equal to or lower than 15 mV (letter A in table 3))”, “A (Selective compounds showed Kv7.4 and/or Kv7.3/7.5 ΔV1/2 equal to or lower than 15 mV (letter A in table 3))”, 5.57 and 23.26 mV.
The matching figures for `O=C(NCc1ccnc(OCC(F)(F)F)c1)NCC1Cc2ccccc2C1` [Compound 145]: “A (Selective compounds showed Kv7.4 and/or Kv7.3/7.5 ΔV1/2 equal to or lower than 15 mV (letter A in table 3))”, “A (Selective compounds showed Kv7.4 and/or Kv7.3/7.5 ΔV1/2 equal to or lower than 15 mV (letter A in table 3))”, 5.79 and 23.71 mV.
The matching figures for `O=C(NCc1ccnc(OCC(F)(F)F)c1)NC1(CO)Cc2ccccc2C1` [Compound 146]: “B (Non-selective compounds showed Kv7.4 and/or Kv7.3/7.5 ΔV1/2 higher than 15 mV (letter B in table 3))”, “B (Non-selective compounds showed Kv7.4 and/or Kv7.3/7.5 ΔV1/2 higher than 15 mV (letter B in table 3))”, 5.18 and 30.86 mV.
In the case of `O=C(NCc1ccnc(OCC(F)(F)F)c1)NC1COc2ccc(F)cc21` (stereo not shown) [Compound 147], in experiment [1], the Kv7.3/7.5 selectivity criteria entry is given as “A (Selective compounds showed Kv7.4 and/or Kv7.3/7.5 ΔV1/2 equal to or lower than 15 mV (letter A in table 3))”. Besides, in experiment [2], the Kv7.4 selectivity criteria entry was “A (Selective compounds showed Kv7.4 and/or Kv7.3/7.5 ΔV1/2 equal to or lower than 15 mV (letter A in table 3))”. Besides, in experiment [3], the pEC50 was 5.72 and the “Kv7.2/7.3 ΔV1/2” value is 15.93 mV.
Regarding `COCC1(NC(=O)NCc2ccnc(OCC(F)(F)F)c2)Cc2ccccc2C1` [Compound 148], the Kv7.3/7.5 selectivity criteria result in experiment [1] was “A (Selective compounds showed Kv7.4 and/or Kv7.3/7.5 ΔV1/2 equal to or lower than 15 mV (letter A in table 3))”. The Kv7.4 selectivity criteria result in experiment [2] was “A (Selective compounds showed Kv7.4 and/or Kv7.3/7.5 ΔV1/2 equal to or lower than 15 mV (letter A in table 3))”. Also, in experiment [3], the pEC50 was 5.74 and the “Kv7.2/7.3 ΔV1/2” value turned out to be 15.43 mV.
`O=C(NCc1ccnc(OCC(F)(F)F)c1)NC1CSc2ccccc2C1` (stereo not shown) [Compound 149]: the Kv7.3/7.5 selectivity criteria result in experiment [1] is “A (Selective compounds showed Kv7.4 and/or Kv7.3/7.5 ΔV1/2 equal to or lower than 15 mV (letter A in table 3))”. Further, the Kv7.4 selectivity criteria result in experiment [2] is reported as “A (Selective compounds showed Kv7.4 and/or Kv7.3/7.5 ΔV1/2 equal to or lower than 15 mV (letter A in table 3))”. Also, in experiment [3], the pEC50 is 6.21 and the “Kv7.2/7.3 ΔV1/2” value came out at 30.8 mV.
As to `O=C(NCc1ccnc(OCC(F)(F)F)c1)N[C@@H]1CCCOc2ccccc21` [Compound 150], in experiment [1], the Kv7.3/7.5 selectivity criteria entry is given as “A (Selective compounds showed Kv7.4 and/or Kv7.3/7.5 ΔV1/2 equal to or lower than 15 mV (letter A in table 3))”. In addition, in experiment [2], the Kv7.4 selectivity criteria result was “B (Non-selective compounds showed Kv7.4 and/or Kv7.3/7.5 ΔV1/2 higher than 15 mV (letter B in table 3))”. Further, in experiment [3], the pEC50 is 5.88 and the “Kv7.2/7.3 ΔV1/2” value was 30.15 mV.
For `O=C(NCc1ccnc(OCC(F)(F)F)c1)N[C@H]1c2ccccc2C[C@H]1CO` [Compound 151] the same measures were “A (Selective compounds showed Kv7.4 and/or Kv7.3/7.5 ΔV1/2 equal to or lower than 15 mV (letter A in table 3))”, “A (Selective compounds showed Kv7.4 and/or Kv7.3/7.5 ΔV1/2 equal to or lower than 15 mV (letter A in table 3))”, 4.95 and 23.51 mV.
The matching figures for `O=C(NCc1ccnc(OCC(F)(F)F)c1)NC1CCSc2ccccc21` (stereo not shown) [Compound 152]: “B (Non-selective compounds showed Kv7.4 and/or Kv7.3/7.5 ΔV1/2 higher than 15 mV (letter B in table 3))”, “B (Non-selective compounds showed Kv7.4 and/or Kv7.3/7.5 ΔV1/2 higher than 15 mV (letter B in table 3))”, 5.87 and 36.08 mV.
For `O=C(NCc1ccnc(OC(F)F)c1)N[C@@H]1CCc2ccc(F)cc21` [Compound 153] the same measures were “B (Non-selective compounds showed Kv7.4 and/or Kv7.3/7.5 ΔV1/2 higher than 15 mV (letter B in table 3))”, “B (Non-selective compounds showed Kv7.4 and/or Kv7.3/7.5 ΔV1/2 higher than 15 mV (letter B in table 3))”, 5.80 and 47.43 mV.
Take `O=C(NCc1ccnc(OCC(F)(F)F)c1)Nc1cccc2c1CCC2` [Compound 154]: the Kv7.3/7.5 selectivity criteria result in experiment [1] is given as “A (Selective compounds showed Kv7.4 and/or Kv7.3/7.5 ΔV1/2 equal to or lower than 15 mV (letter A in table 3))”. Besides, the Kv7.4 selectivity criteria result in experiment [2] is “A (Selective compounds showed Kv7.4 and/or Kv7.3/7.5 ΔV1/2 equal to or lower than 15 mV (letter A in table 3))”. Moreover, in experiment [3], the pEC50 is 6.21 and the “Kv7.2/7.3 ΔV1/2” value turned out to be 24.51 mV.
For `O=C(NCc1ccnc(OCC(F)(F)F)c1)N[C@H]1c2ccccc2C[C@H]1O` [Compound 155], the Kv7.3/7.5 selectivity criteria entry in experiment [1] is “B (Non-selective compounds showed Kv7.4 and/or Kv7.3/7.5 ΔV1/2 higher than 15 mV (letter B in table 3))”. The Kv7.4 selectivity criteria entry in experiment [2] is on record as “B (Non-selective compounds showed Kv7.4 and/or Kv7.3/7.5 ΔV1/2 higher than 15 mV (letter B in table 3))”. In experiment [3], the pEC50 is 5.02 and the “Kv7.2/7.3 ΔV1/2” value was 30.26 mV.
For the molecule `O=C(NCc1ccnc(OCC(F)(F)F)c1)N[C@@H]1CCCc2ccccc21` [Compound 156], the Kv7.3/7.5 selectivity criteria result in experiment [1] is “B (Non-selective compounds showed Kv7.4 and/or Kv7.3/7.5 ΔV1/2 higher than 15 mV (letter B in table 3))”. In addition, in experiment [2], the Kv7.4 selectivity criteria result is “B (Non-selective compounds showed Kv7.4 and/or Kv7.3/7.5 ΔV1/2 higher than 15 mV (letter B in table 3))”. For the same molecule, in experiment [3], the pEC50 was 5.73 and the “Kv7.2/7.3 ΔV1/2” value is 55.46 mV.
Turning to `O=C(NCc1ccnc(OCC(F)(F)F)c1)NCC1CCc2ccccc21` (stereo not shown) [Compound 157], the Kv7.3/7.5 selectivity criteria result in experiment [1] was “A (Selective compounds showed Kv7.4 and/or Kv7.3/7.5 ΔV1/2 equal to or lower than 15 mV (letter A in table 3))”. Besides, the Kv7.4 selectivity criteria entry in experiment [2] was “A (Selective compounds showed Kv7.4 and/or Kv7.3/7.5 ΔV1/2 equal to or lower than 15 mV (letter A in table 3))”. Further, in experiment [3], the pEC50 is 5.40 and the “Kv7.2/7.3 ΔV1/2” value is given as 18.8 mV.
`N#Cc1cccc2c1CC[C@H]2NC(=O)NCc1ccnc(OCC(F)(F)F)c1` [Compound 158]: the Kv7.3/7.5 selectivity criteria result in experiment [1] was “B (Non-selective compounds showed Kv7.4 and/or Kv7.3/7.5 ΔV1/2 higher than 15 mV (letter B in table 3))”. In addition, the Kv7.4 selectivity criteria entry in experiment [2] is recorded as “B (Non-selective compounds showed Kv7.4 and/or Kv7.3/7.5 ΔV1/2 higher than 15 mV (letter B in table 3))”. Further, in experiment [3], the pEC50 is 5.59 and the “Kv7.2/7.3 ΔV1/2” value came out at 31.18 mV.
In the case of `Cc1ccc2c(c1)[C@@H](NC(=O)NCc1ccnc(OCC(F)(F)F)c1)CC2` [Compound 159], the Kv7.3/7.5 selectivity criteria result in experiment [1] is listed as “A (Selective compounds showed Kv7.4 and/or Kv7.3/7.5 ΔV1/2 equal to or lower than 15 mV (letter A in table 3))”. For the same molecule, the Kv7.4 selectivity criteria result in experiment [2] is “A (Selective compounds showed Kv7.4 and/or Kv7.3/7.5 ΔV1/2 equal to or lower than 15 mV (letter A in table 3))”. For the same molecule, in experiment [3], the pEC50 was 5.81 and the “Kv7.2/7.3 ΔV1/2” value is on record as 15.05 mV.

The values are drawn from patent US20260207563A1, “UREA COMPOUNDS AS ACTIVATORS OF POTASSIUM CHANNELS KV7.2/7.3 USEFUL IN THE TREATMENT OF CNS AND PNS DISORDERS” (ANGELINI PHARMA S.P.A., priority 2022, published 2026).
